In publication PMC8231256, “Influence of N-Methylation and Conformation on Almiramide Anti-Leishmanial Activity” (Molecules, 2021):
pEC50: −log10 of the molar value. Like-named read-outs stand apart in the source and are kept apart here.

Key:
[1] = test system: L. infantum (MHOM/MA/67/ITMAP-263) wild-type strain (WT) promastigotes; assay type: cell-based, Leishmania infantum; details: for Selectivity Index: SI = CC50 (LM-1 macrophage)/EC50 Ldi WT; for pEC50: 72 h
Procedure: (§1) The biological activity of peptides 15–37 was assessed against the L. infantum wild-type stain (WT), as well as mutants resistant to the common anti-leishmanial agents, such as antimony (Sb^III), amphotericin B (AmB) and miltefosine (MF): Sb2000.1, AmB1000.1 and MF200.5. Activity against Leishmania promastigotes was determined by monitoring the replication of parasites after 72 h of incubation at 25 °C in the presence of increasing concentrations of the different peptides […] and reported as EC50 values (Table 2). […] The greatest potencies were observed using analogs against the amphotericin B resistant strain (e.g., AmB1000.1).
(§2) The L. infantum (MHOM/MA/67/ITMAP-263) wild-type stain (WT), as well as the resistant mutants Sb2000.1, AmB1000.1 and MF200.5 [53, 54, 55, 56, 57, 58], resistant to antimony (Sb^III), amphotericin B (AmB) and miltefosine (MF), respectively, were grown in M199 medium at 25 °C supplemented with 10% fetal bovine serum, 5 μg/mL of haemin at pH 7.0 and 2000 μM Sb (Potassium antimonyl tartrate, Sigma-Aldrich), 200 μM of MF (Miltefosine, Cayman Chem., Ann Arbor, MI, USA) or 1 μM AmB (Amphotericin B solution, Sigma, Oakville, ON, Canada). Antileishmanial values were determined in Leishmania promastigotes by monitoring the replication of parasites after 72 h of incubation at 25 °C in the presence of increasing concentrations of the different peptides by measuring A600 using a Cytation 5 machine (BioTek, Winooski, VT, USA). EC50 values were calculated based on dose–response curves analyzed by non-linear regression with GraphPad Prism 8.4.3 software (GraphPad Software, La Jolla, CA, USA). An average of at least three independent biological replicates from independent cultures was performed for each determination.

[2] = test system: L. infantum AmB1000.1 (resistant to amphotericin B) promastigotes; assay type: cell-based, Leishmania infantum; details: for pEC50: strain resistant to 1 µM amphotericin B, promastigotes, 72 h, 25 °C, 95% CI in brackets (n = 3), read-out: Ldi AmB-Res EC50
Procedure: as §1, §2

[3] = test system: L. infantum MF200.5 (resistant to miltefosine) promastigotes; assay type: cell-based, Leishmania infantum; details: for pEC50: strain resistant to 200 µM miltefosine, promastigotes, 72 h, 25 °C, 95% CI in brackets (n = 3), read-out: Ldi MF-Res EC50
Procedure: as §1, §2

[4] = test system: L. infantum Sb2000.1 (resistant to antimony) promastigotes; assay type: cell-based, Leishmania infantum; details: strain resistant to 2 mM antimonials, 72 h, 25 °C, 95% CI in brackets (n = 3), read-out: Ldi Sb-Res EC50
Procedure: as §1, §2

[5] = LM-1 macrophage cytotoxicity (Alamar Blue); assay type: cell-based, murine; details: mouse
Procedure: The host cytotoxicity was evaluated by monitoring the survival rates of murine LM-1 macrophage at different concentrations of peptides 15–37 ([…]) over 24 h. […] Exceptionally, MeAla peptide amide 21 was 3.2- to 8-fold less toxic than the other peptide analogs.
The LM1- macrophages were grown in DMEM supplemented with 10% heat inactivated FBS. Cells at the concentration of 100,000 cells/mL were cultivated for 24 h in a 96-well plate (37 °C, 5% CO2). The culture medium was removed and fresh medium containing the appropriate drug and concentration was added to the cells, which were incubated for 24 h (37 °C, 5% CO2). Seven different concentrations were tested ([…]) as well as controls (without drugs). After 24 h, the culture medium was removed and replaced for fresh medium containing 10% Alamar Blue (Thermo Fisher Scientific, Waltham, MA, USA) and incubated for 2 h (37 °C, 5% CO2). Readings at 570 and 600 nm (Asys UVM340 Plate reader, Biochrom, Cambridge, UK) were taken and analyzed according to the manufacturer protocol. Survival rates at different drug concentrations and CC50 values were calculated using the Excel software.

Leishmania donovani = test system: Leishmania donovani; design: method as in PMID 20441198; details: cited from earlier work; for selectivity index (CC50/EC50): Vero kidney cells CC50 vs L. donovani
[6] = promastigotes, 25 °C, 95% confidence interval in brackets (n = 3), read-out: Ldi WT EC50
[7] = MHOM/MA/67/ITMAP-263) wild-type strain (WT) promastigotes

| Compound | Selectivity Index [1] | pEC50 [1, 6] | pEC50 [2] | pEC50 [3] | pEC50 [4] | CC50 at 24 h ([5]; LM-1 macrophages, 24 h, Alamar Blue, read-out: CC50) | pEC50 [1, 7] | CC50 at 24 h [5] | fold more active than nonmethylated counterpart ([2]; AmB1000.1, 17 vs 16, 35 vs 31) | fold more active than nonmethylated counterpart ([3]; MF200.5, 35 vs 31) | selectivity index (CC50/EC50) (Leishmania donovani) | activity against Leishmania donovani (Leishmania donovani) |
| --- | --- | --- | --- | --- | --- | --- | --- | --- | --- | --- | --- | --- |
| C#CCCCCC(=O)N(C)[C@H](C(=O)N(C)[C@H]1CCN([C@H](C(=O)N(C)[C@@H](C)C(=O)N(C)[C@@H](Cc2ccccc2)C(=O)O)C(C)C)C1=O)C(C)C [peptide 27, HCC(CH2)4CO-Val(Me)-Agl(Me)-Val-Ala(Me)-Phe(Me)-OH] | 1.0 | 3.55 | < 3.52 | < 3.52 | 3.53 | 295 µM | – | – | – | – | – | – |
| C#CCCCCC(=O)N(C)[C@H](C(=O)N(C)[C@H](C(=O)N(C)[C@H]1CCN([C@@H](C)C(=O)N(C)[C@@H](Cc2ccccc2)C(=O)O)C1=O)C(C)C)C(C)C [peptide 28, HCC(CH2)4CO-Val(Me)-Val(Me)-Agl(Me)-Ala-Phe(Me)-OH] | 0.9 | – | < 3.52 | 3.55 | 3.60 | – | 3.59 | 245 µM | – | – | – | – |
| C#CCCCCC(=O)N[C@H]1CCN([C@H](C(=O)N[C@H](C(=O)N[C@@H](C)C(=O)N[C@@H](Cc2ccccc2)C(=O)NCCCCCCN)C(C)C)C(C)C)C1=O [peptide 29, HCC(CH2)4CO-Agl-Val-Val-Ala-Phe-NH(CH2)6NH2] | 5.5 | – | 4.14 | 4.17 | 4.04 | – | 4.13 | 416 µM | – | – | – | – |
| C#CCCCCC(=O)N[C@H](C(=O)N[C@H]1CCN([C@H](C(=O)N[C@@H](C)C(=O)N[C@@H](Cc2ccccc2)C(=O)NCCCCCCN)C(C)C)C1=O)C(C)C [peptide 30, HCC(CH2)4CO-Val-Agl-Val-Ala-Phe-NH(CH2)6NH2] | 8.6 | – | 3.94 | 3.89 | 4.42 | – | 4.32 | 407 µM | – | – | – | – |
| C#CCCCCC(=O)N[C@H](C(=O)N[C@H](C(=O)N[C@H]1CCN([C@@H](C)C(=O)N[C@@H](Cc2ccccc2)C(=O)NCCCCCCN)C1=O)C(C)C)C(C)C [peptide 31, HCC(CH2)4CO-Val-Val-Agl-Ala-Phe-NH(CH2)6NH2] | 6.0 | – | 3.89 | 3.90 | 4.31 | – | 4.19 | 389 µM | – | – | – | – |
| C#CCCCCC(=O)N[C@H](C(=O)N[C@H](C(=O)N[C@H](C(=O)N[C@H]1CCN([C@@H](Cc2ccccc2)C(=O)NCCCCCCN)C1=O)C(C)C)C(C)C)C(C)C [peptide 32, HCC(CH2)4CO-Val-Val-Val-Agl-Phe-NH(CH2)6NH2] | 4.3 | – | 4.05 | 4.07 | 4.06 | – | 4.04 | 389 µM | – | – | – | – |
| C#CCCCCC(=O)N(C)[C@H]1CCN([C@H](C(=O)N(C)[C@H](C(=O)N(C)[C@@H](C)C(=O)N(C)[C@@H](Cc2ccccc2)C(=O)NCCCCCCN)C(C)C)C(C)C)C1=O [peptide 33, HCC(CH2)4CO-Agl(Me)-Val-Val(Me)-Ala(Me)-Phe(Me)-NH(CH2)6NH2] | 3.4 | – | 3.74 | 3.72 | 3.85 | – | 3.92 | 407 µM | – | – | – | – |
| C#CCCCCC(=O)N(C)[C@H](C(=O)N(C)[C@H](C(=O)N(C)[C@H]1CCN([C@@H](C)C(=O)N(C)[C@@H](Cc2ccccc2)C(=O)NCCCCCCN)C1=O)C(C)C)C(C)C [peptide 35, HCC(CH2)4CO-Val(Me)-Val(Me)-Agl(Me)-Ala-Phe(Me)-NH(CH2)6NH2] | 4.7 | – | 4.04 | 4.07 | 4.09 | – | 4.10 | 371 µM | 1.4 fold | 1.5 fold | – | – |
| C#CCCCCC(=O)Nn1c(C)cn([C@H](C(=O)N[C@H](C(=O)N[C@@H](C)C(=O)N[C@@H](Cc2ccccc2)C(=O)O)C(C)C)C(C)C)c1=O [peptide 36, HCC(CH2)4CO-(5-Me)Nai-Val-Val-Ala-Phe-OH] | – | < 3.52 | < 3.52 | < 3.52 | < 3.52 | – | – | 436 µM | – | – | – | – |
| C#CCCCCC(=O)N[C@H](C(=O)Nn1c(C)cn([C@H](C(=O)N[C@@H](C)C(=O)N[C@@H](Cc2ccccc2)C(=O)O)C(C)C)c1=O)C(C)C [peptide 37, HCC(CH2)4CO-Val-(5-Me)Nai-Val-Ala-Phe-OH] | – | < 3.52 | < 3.52 | < 3.52 | < 3.52 | – | – | 407 µM | – | – | – | – |
| Almiramide B [compound 2] | – | – | – | – | – | – | – | – | – | – | 21.8 | low μM activity |
| Almiramide C [compound 3] | – | – | – | – | – | – | – | – | – | – | 17.4 | low μM activity |
| almiramide A [compound 1] | – | – | – | – | – | – | – | – | – | – | – | inactive |
